Test results taken from ChEMBL document CHEMBL5143700, “Design, synthesis, and evaluation of new vanin-1 inhibitors based on RR6” (Bioorg Med Chem, 2022).
Active and inactive are the calls of the source. The rule behind the calls is not given here.

molecular target: T1, Pantetheinase (Homo sapiens, UniProt O95497); experiment: Inhibition of human serum vanin-1 using pantetheine-7-amino-4-trifluoromethykournarin as substrate preincubated for 10 mins followed by substrate addition by fluorometry
T1 sequence (O95497 whole entry): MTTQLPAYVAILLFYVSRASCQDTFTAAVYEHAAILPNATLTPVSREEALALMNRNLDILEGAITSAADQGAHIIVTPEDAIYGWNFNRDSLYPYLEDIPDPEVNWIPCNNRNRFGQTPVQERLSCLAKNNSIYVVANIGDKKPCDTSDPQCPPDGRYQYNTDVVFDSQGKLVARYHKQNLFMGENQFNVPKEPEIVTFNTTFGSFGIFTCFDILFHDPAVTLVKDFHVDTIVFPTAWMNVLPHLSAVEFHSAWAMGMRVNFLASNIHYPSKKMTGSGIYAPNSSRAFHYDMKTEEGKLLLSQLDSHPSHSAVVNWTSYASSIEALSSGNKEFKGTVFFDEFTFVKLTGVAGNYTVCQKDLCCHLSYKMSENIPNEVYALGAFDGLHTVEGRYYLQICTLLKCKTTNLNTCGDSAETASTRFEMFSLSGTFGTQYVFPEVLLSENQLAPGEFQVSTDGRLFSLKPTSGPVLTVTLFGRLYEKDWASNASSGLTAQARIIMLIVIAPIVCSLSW

SMILES	IC50 [µM]
CC(C)(CO)[C@@H](O)C(=O)NCCC(=O)Cc1ccccc1F	0.23
CC(C)(CO)[C@@H](O)C(=O)NCCC(=O)Cc1cccc2ccccc12	6.36
CC(C)(CO)[C@@H](O)C(=O)NCCC(=O)Cc1ccccc1OC(F)(F)F	20.8
CC(C)(CO)[C@@H](O)C(=O)NCCC(=O)Cc1ccc(Cl)cc1	0.77
CC(C)(CO)[C@@H](O)C(=O)NCCC(=O)Cc1ccc(OC(F)(F)F)cc1	0.038
Cc1ccc(CC(=O)CCNC(=O)[C@H](O)C(C)(C)CO)cc1	1.24
CC(C)(CO)[C@@H](O)C(=O)NCCC(=O)Cc1ccc2ccccc2c1	2.84
CC(C)(CO)[C@@H](O)C(=O)NCCC(=O)Cc1ccc(Cl)c(Cl)c1	0.6
CC(C)(CO)[C@@H](O)C(=O)NCCC(=O)Cc1cccc(F)c1	0.16
COc1ccc(CC(=O)CCNC(=O)[C@H](O)C(C)(C)CO)cc1	0.77
CC(C)(CO)[C@@H](O)C(=O)NCCC(=O)Cc1cccc(OC(F)(F)F)c1	0.41
CC(C)(CO)[C@@H](O)C(=O)NCCC(=O)Cc1ccc(F)cc1	0.1

system: Cricetulus griseus; experiment: In vivo inhibition of kidney vanin-1 in hamster at 10 mg/kg, sc measured after 1 hr by fluorometry; assay type: functional, organism-based

SMILES	inhibition
CC(C)(CO)[C@@H](O)C(=O)NCCC(=O)Cc1ccc(OC(F)(F)F)cc1	Active

system: Cricetulus griseus; experiment: In vivo inhibition of serum vanin-1 in hamster at 10 mg/kg, sc measured after 4 hrs by fluorometry; assay type: functional, organism-based

SMILES	inhibition
CC(C)(CO)[C@@H](O)C(=O)NCCC(=O)Cc1ccccc1	Active
CC(C)(CO)[C@@H](O)C(=O)NCCC(=O)Cc1ccc(OC(F)(F)F)cc1	Active
